According to patent US20260365690A1, “COMPOUND FOR RNA CAPPING AND USE THEREOF” (GUANGZHOU HENOVCOM BIOSCIENCE CO., LTD., priority 2022, published 2026):

Columns and labels:
[1] = system: mRNA; test: Capping efficiency of mRNA by LC-MS; type: biochemical; details: cap analog 4 mM in in vitro transcription, RNase H cleaved 5′ fragment
Protocol: (§1) 1) The plasmids were linearized and the DNA templates were purified.
(§2) 2) The mRNA was synthesized by in vitro transcription, using 11 cap structures of the present disclosure, positive control CleanCap®AG (3′OMe) (Trilink, N-7413), negative control (uncapped mRNA) and blank control (DNase/RNase-Free water), respectively.
(§3) The reaction was carried out at 37 °C for 2 to 3 hours. TURBO DNase digestion was carried out for 15 minutes. The mRNA was precipitated by LiC for 30 min or more or overnight, and the mRNA precipitate was washed with 75% ethanol, dried briefly to evaporate the ethanol, and the mRNA was redissolved with RNase-Free water.
Gradient annealing was performed in a PCR instrument: […]
5) Magnetic beads were pre-treated and bound to probes.
100 μL of magnetic beads were taken and placed on a magnetic stand. The storage solution was discarded, and 100 μL of 1*BW solution was added thereto. After mixing well, the mixture was placed on the magnetic stand, and the supernatant was discarded. The wash was carried out three times in the same way. 100 μL of wash A buffer was added thereto. After mixing well, the mixture was placed on the magnetic stand, and the supernatant was discarded. The wash was carried out three times in the same way. 100 μL of wash B buffer was added thereto. After mixing well, the mixture was placed on the magnetic stand, and the supernatant was discarded. The wash was carried out three times in the same way. 120 μL of the sample was added to the magnetic bead solution and incubated for 30 min at room temperature with gentle mixing while incubating.
6) The mRNA was cut to obtain the 5′ single-stranded sequence of mRNA bound to probes.
20 μL of RNase H (5 U/μL) was added thereto, incubated at 37 °C for 3 hours, and mixed well every half hour. 100 μL of 1*BW solution was added thereto. After mixing well, the mixture was placed on the magnetic stand, and the supernatant was discarded. The wash was carried out three times in the same way. 100 μL of deionized water solution was added thereto. After mixing well, the mixture was placed on the magnetic stand, and the supernatant was discarded. The wash was carried out three times in the same way. 100 μL of 75% methanol was added thereto at 80 °C, then the mixture was heated to 80 °C on a heating plate and held for 3 min, placed on the magnetic stand, and the supernatant was aspirated. The sample was dried at room temperature for 45 min to 10 μL using an evaporative centrifuge and then resuspended in 50 μL of 100 μM EDTA/1% MeOH for LC-MS analysis.
LC-MS was used to analyze the capping efficiency of mRNA synthesized by analogues with different cap structures. The capping efficiency results of some compounds in the detection results are now provided.

[2] = system: HEK293T cells; test: Expression efficiency of capped luciferase mRNAs in HEK293T cells; type: cell-based; details: 6 h after transfection of capped luciferase mRNA into HEK293T cells; ratio to N-7413 (= 1)
Protocol: 2. Evaluation of Expression Efficiency of Different Capped Luciferase mRNAs in HEK293T Cells
1) HNE293T cells were cultured in DMEM medium containing 10% FBS and penicillin/streptomycin at 37 °C and 5% CO2.
2) The cultured HEK293T cells were spread in a 96-well plate with 1.25×10^4 cells per well.
3) After the cells completely adhered to the wall, 0.5 μg of a mixture of mRNA sample and Polyplus jetMESSENGER was added to each well of cells, and cultured at 37 °C and 5% CO2 for 6 hours.
4) The growth medium was removed from the cells to be tested and the cells were rinsed with PBS. After centrifugation to remove PBS, 50 μL of 1× lysis buffer was added thereto, and cells and all liquid were transferred to a microcentrifuge tube, and then centrifuged at 12000×g and 4 °C for 2 min.
5) The supernatant was transferred to a new tube. Fluorescence readings were detected using the ONE-Glo Luciferase Assay System Kit.
3. All compounds, N-7413, negative control and blank control were tested under the same conditions, and some experimental results in the test results are shown in Table 5.
The relative fluorescence reading results (6 h) after transfection of capped mRNA into 293T cells are now provided, as shown in Table 5. It can be seen from the FIGURE that the mRNA capped by the compound of the present disclosure has a high expression level, and some cap structures can enable higher expression efficiency of mRNA compared to N-7413.

[3] = system: mRNA; test: mRNA synthesis by in vitro transcription (co-transcriptional capping), final product mass; type: biochemical; details: obtained from 20 μL mRNA synthesis reaction system; T7 RNA Polymerase; cap analog 4 mM; 37 °C, 2 to 3 hours
Protocol: as §1, §2, §3
3) The transcription product was purified, and the reaction yield was calculated to provide the test results of some compounds, as shown in Table 2.

Compound | Capping efficiency [1] | Relative fluorescence reading [2] | Final product mass [3] [µg]
CO[C@@H]1[C@H](OCOC[C@H]2O[C@@H](n3cnc4c(=O)[nH]c(N)nc43)[C@H](O)[C@@H]2O)[C@@H](COP(=O)(O)OP(=O)(O)OP(=O)(O)OC[C@H]2O[C@@H](n3c[n+](C)c4c(=O)[nH]c(N)nc43)[C@H](O)[C@@H]2C)O[C@H]1n1cnc2c(N)ncnc21 [Compound 57] | C (90% > C ≥ 80%) | 0.88 | 90
CCC[C@H]1[C@@H](O)[C@H](n2c[n+](C)c3c(=O)[nH]c(N)nc32)O[C@@H]1COP(=O)(O)OP(=O)(O)OP(=O)(O)OC[C@H]1O[C@@H](n2cnc3c(NC)ncnc32)[C@H](OC)[C@@H]1OP(=O)(O)OC[C@H]1O[C@@H](n2cnc3c(=O)[nH]c(N)nc32)[C@H](O)[C@@H]1O [Compound 719] |  | 1.69 | 97
CO[C@@H]1[C@H](OP(=O)(O)OC[C@H]2O[C@@H](n3cnc4c(=O)[nH]c(N)nc43)[C@H](O)[C@@H]2O)[C@@H](COP(=O)(O)OP(=O)([O-])OP(=O)(O)OC[C@H]2O[C@@H](n3c[n+](C)c4c(=O)[nH]c(N)nc43)[C@H](O)[C@@H]2C(=O)N(C)C)O[C@H]1n1cnc2c(N)ncnc21 [Compound 193] | A (100% > A ≥ 95%) | 1.64 | 105
C=CC[C@H]1[C@@H](O)[C@H](n2c[n+](C)c3c(=O)[nH]c(N)nc32)O[C@@H]1COP(=O)(O)OP(=O)(O)OP(=O)(O)OC[C@H]1O[C@@H](n2cnc3c(N)ncnc32)[C@H](OC)[C@@H]1OP(=O)(O)OC[C@H]1O[C@@H](n2cnc3c(=O)[nH]c(N)nc32)[C@H](O)[C@@H]1O [Compound 710] | A (100% > A ≥ 95%) | 1.90 | 108
CO[C@@H]1[C@H](OP(=O)(O)OC[C@H]2O[C@@H](n3cnc4c(=O)[nH]c(N)nc43)[C@H](O)[C@@H]2O)[C@@H](COP(=O)(O)OP(=O)(O)OP(=O)(O)OC[C@H]2O[C@@H](n3c[n+](C)c4c(=O)[nH]c(N)nc43)[C@H](O)[C@@H]2NC(=O)c2ccccc2)O[C@H]1n1cnc2c(N)ncnc21 [Compound 297] |  | 1.79 | 110
CO[C@@H]1[C@H](OP(=O)(O)OC[C@H]2O[C@@H](n3cnc4c(=O)[nH]c(N)nc43)[C@H](O)[C@@H]2O)[C@@H](COP(=O)(O)OP(=O)(O)OP(=O)(O)OC[C@H]2O[C@@H](n3c[n+](C)c4c(=O)[nH]c(N)nc43)[C@H](O)[C@@H]2NC(=O)C(C)(C)C)O[C@H]1n1cnc2c(N)ncnc21 [Compound 722] |  | 1.74 | 103
CO[C@@H]1[C@H](OP(=O)([O-])OC[C@H]2O[C@@H](n3cnc4c(=O)[nH]c(N)nc43)[C@H](O)[C@@H]2O)[C@@H](COP(=O)(O)OP(=O)(O)OP(=O)(O)OC[C@H]2O[C@@H](n3c[n+](C)c4c(=O)[nH]c(N)nc43)[C@H](O)[C@@H]2OC)O[C@H]1n1cnc2c(N)ncnc21 [Compound N-7413, reference compound] |  | 1.00 | 114
CC[C@H]1[C@@H](O)[C@H](n2c[n+](C)c3c(=O)[nH]c(N)nc32)O[C@@H]1COP(=O)(O)OP(O)(=S)OP(=O)(O)OC[C@H]1O[C@@H](n2cnc3c(N)ncnc32)[C@H](OC)[C@@H]1OP(=O)([O-])OC[C@H]1O[C@@H](n2cnc3c(=O)[nH]c(N)nc32)[C@H](O)[C@@H]1O (stereo partly shown) [Compound 718] |  | 1.66 | 106
C=CC[n+]1cn([C@@H]2O[C@H](COP(=O)(O)OP(=O)(O)OP(=O)(O)OC[C@H]3O[C@@H](n4cnc5c(N)ncnc54)[C@H](OC)[C@@H]3OP(=O)(O)OC[C@H]3O[C@@H](n4cnc5c(=O)[nH]c(N)nc54)[C@H](O)[C@@H]3O)[C@@H](CC)[C@H]2O)c2nc(N)[nH]c(=O)c21 [Compound 716] |  | 1.50 | 103
CCCCCCNC(=O)[C@H]1[C@@H](O)[C@H](n2c[n+](C)c3c(=O)[nH]c(N)nc32)O[C@@H]1COP(=O)(O)OP(=O)(O)OP(=O)(O)OC[C@H]1O[C@@H](n2cnc3c(N)ncnc32)[C@H](OC)[C@@H]1OP(=O)(O)OC[C@H]1O[C@@H](n2cnc3c(=O)[nH]c(N)nc32)[C@H](O)[C@@H]1O [Compound 205] |  | 1.52 | 98
CO[C@@H]1[C@H](CC(=O)NC[C@H]2O[C@@H](n3cnc4c(=O)[nH]c(N)nc43)[C@H](O)[C@@H]2O)[C@@H](COP(=O)(O)OP(=O)(O)OP(=O)(O)OC[C@H]2O[C@@H](n3c[n+](C)c4c(=O)[nH]c(N)nc43)[C@H](O)[C@@H]2C)O[C@H]1n1cnc2c(N)ncnc21 [Compound 59] |  | 0.71 | 91
CO[C@@H]1[C@H](OP(=O)(O)OC[C@H]2O[C@@H](n3cnc4c(=O)[nH]c(N)nc43)[C@H](O)[C@@H]2O)[C@@H](COP(=O)(O)OP(=O)(O)CP(=O)(O)OC[C@H]2O[C@@H](n3c[n+](C)c4c(=O)[nH]c(N)nc43)[C@H](O)[C@@H]2CCF)O[C@H]1n1cnc2c(N)ncnc21 [Compound 103] |  | 1.45 | 94
CO[C@@H]1[C@H](OP(=O)(O)OC[C@H]2O[C@@H](n3cnc4c(=O)[nH]c(N)nc43)[C@H](O)[C@@H]2O)[C@@H](COP(=O)(O)OP(=O)(O)OP(=O)(O)OC[C@H]2O[C@@H](n3c[n+](C)c4c(=O)[nH]c(N)nc43)[C@H](O)[C@@H]2N=[N+]=[N-])O[C@H]1n1cnc2c(N)ncnc21 [Compound 399] |  | 1.51 | 117
C/C=C/C[C@H]1[C@@H](O)[C@H](n2c[n+](C)c3c(=O)[nH]c(N)nc32)O[C@@H]1COP(=O)(O)OP(=O)(O)OP(=O)(O)OC[C@H]1O[C@@H](n2cnc3c(N)ncnc32)[C@H](OC)[C@@H]1OP(=O)([O-])OC[C@H]1O[C@@H](n2cnc3c(=O)[nH]c(N)nc32)[C@H](O)[C@@H]1O [Compound 711] |  | 1.86 | 106
CO[C@@H]1[C@H](OP(=O)(O)OC[C@H]2O[C@@H](n3cnc4c(=O)[nH]c(N)nc43)[C@H](O)[C@@H]2O)[C@@H](COP(=O)(O)OP(=O)(O)OP(=O)(O)OC[C@H]2O[C@@H](n3c[n+](C)c4c(=O)[nH]c(N)nc43)[C@H](O)[C@@H]2NC(=O)C(C)C)O[C@H]1n1cnc2c(N)ncnc21 [Compound 293] |  | 1.68 | 103
CNC(=O)[C@H]1[C@@H](O)[C@H](n2c[n+](C)c3c(=O)[nH]c(N)nc32)O[C@@H]1COP(=O)(O)OP(=O)(O)OP(=O)(O)OC[C@H]1O[C@@H](n2cnc3c(N)ncnc32)[C@H](OC)[C@@H]1OP(=O)(O)OC[C@H]1O[C@@H](n2cnc3c(=O)[nH]c(N)nc32)[C@H](O)[C@@H]1O [Compound 191] |  | 1.68 | 100
CCC(=O)N[C@H]1[C@@H](O)[C@H](n2c[n+](C)c3c(=O)[nH]c(N)nc32)O[C@@H]1COP(=O)(O)OP(=O)(O)OP(=O)(O)OC[C@H]1O[C@@H](n2cnc3c(N)ncnc32)[C@H](OC)[C@@H]1OP(=O)(O)OC[C@H]1O[C@@H](n2cnc3c(=O)[nH]c(N)nc32)[C@H](O)[C@@H]1O [Compound 291] |  | 1.60 | 106
